Assay results: paper PMC12367838, “Relevance of kinetic interactions and co-formulants for plant protection product liver toxicity in vitro” (Archives of Toxicology, 2025)

Tested on: HepaRG cells
Assay: Total RNA sequencing, differential gene expression
[1] = high sub-cytotoxic concentration, 24 h, vs solvent control
[2] = low sub-cytotoxic concentration, 24 h, vs solvent control

SMILES: C#CCOc1ccc(CCNC(=O)C(OCC#C)c2ccc(Cl)cc2)cc1OC (stereo not drawn) [MDP, mandipropamid]
- Fold change ACOX1 (gene ACOX1, MDP_HIGH): 0.9326
- log2FoldChange ACOX1 (gene ACOX1, MDP_HIGH): -0.1007
- Fold change AHR (gene AHR, MDP_HIGH): 1.696
- log2FoldChange AHR (gene AHR, MDP_HIGH): 0.7618
- Fold change CD36 (gene CD36, MDP_HIGH): 1.4443
- log2FoldChange CD36 (gene CD36, MDP_HIGH): 0.5304
- Fold change CYP1A1 (gene CYP1A1, MDP_HIGH): 10.9554
- log2FoldChange CYP1A1 (gene CYP1A1, MDP_HIGH): 3.454
- Fold change CYP1A2 (gene CYP1A2, MDP_HIGH): 0.4656
- log2FoldChange CYP1A2 (gene CYP1A2, MDP_HIGH): -1.103
- Fold change CYP2B6 (gene CYP2B6, MDP_HIGH): 1.009
- log2FoldChange CYP2B6 (gene CYP2B6, MDP_HIGH): 0.01275
- Fold change CYP2C9 (gene CYP2C9, MDP_HIGH): 0.1687
- log2FoldChange CYP2C9 (gene CYP2C9, MDP_HIGH): -2.568
- Fold change CYP2C19 (gene CYP2C19, MDP_HIGH): 0.1531
- log2FoldChange CYP2C19 (gene CYP2C19, MDP_HIGH): -2.707
- Fold change CYP2D6 (gene CYP2D6, MDP_HIGH): 0.9227
- log2FoldChange CYP2D6 (gene CYP2D6, MDP_HIGH): -0.116
- Fold change CYP3A4 (gene CYP3A4, MDP_HIGH): 0.7016
- log2FoldChange CYP3A4 (gene CYP3A4, MDP_HIGH): -0.5112
- Fold change FASN (gene FASN, MDP_HIGH): 1.131
- log2FoldChange FASN (gene FASN, MDP_HIGH): 0.178
- Fold change INSIG1 (gene INSIG1, MDP_HIGH): 1.034
- log2FoldChange INSIG1 (gene INSIG1, MDP_HIGH): 0.04872
- Fold change MLXIPL (gene MLXIPL, MDP_HIGH): 0.6622
- log2FoldChange MLXIPL (gene MLXIPL, MDP_HIGH): -0.5947
- Fold change NR1H2 (gene NR1H2, MDP_HIGH): 1.431
- log2FoldChange NR1H2 (gene NR1H2, MDP_HIGH): 0.5168
- Fold change NR1H4 (gene NR1H4, MDP_HIGH): 0.8415
- log2FoldChange NR1H4 (gene NR1H4, MDP_HIGH): -0.249
- Fold change NR1I2 (gene NR1I2, MDP_HIGH): 0.5918
- log2FoldChange NR1I2 (gene NR1I2, MDP_HIGH): -0.7568
- Fold change NR1I3 (gene NR1I3, MDP_HIGH): 0.06449
- log2FoldChange NR1I3 (gene NR1I3, MDP_HIGH): -3.955
- Fold change NR3C1 (gene NR3C1, MDP_HIGH): 1.123
- log2FoldChange NR3C1 (gene NR3C1, MDP_HIGH): 0.1669
- Fold change PPARA (gene PPARA, MDP_HIGH): 0.7275
- log2FoldChange PPARA (gene PPARA, MDP_HIGH): -0.4589
- Fold change PPARG (gene PPARG, MDP_HIGH): 4.604
- log2FoldChange PPARG (gene PPARG, MDP_HIGH): 2.203
- Fold change RARA (gene RARA, MDP_HIGH): 1.153
- log2FoldChange RARA (gene RARA, MDP_HIGH): 0.2052
- Fold change RARB (gene RARB, MDP_HIGH): 2.749
- log2FoldChange RARB (gene RARB, MDP_HIGH): 1.459
- Fold change RARG (gene RARG, MDP_HIGH): 1.386
- log2FoldChange RARG (gene RARG, MDP_HIGH): 0.4711
- Fold change SCD (gene SCD, MDP_HIGH): 0.8254
- log2FoldChange SCD (gene SCD, MDP_HIGH): -0.2768
- Fold change SREBF1 (gene SREBF1, MDP_HIGH): 0.451
- log2FoldChange SREBF1 (gene SREBF1, MDP_HIGH): -1.149
- CYP1A1 Fold change [1]: ≈ 11
- NR1I3 Fold change [1]: ≈ 0.06
- SREBF1 Fold change [1]: ≈ 0.45
- ACOX1 Fold change [2]: 1.035
- ACOX1 log2FoldChange [2]: 0.04967
- AHR Fold change [2]: 1.296
- AHR log2FoldChange [2]: 0.3736
- CD36 Fold change [2]: 1.929
- CD36 log2FoldChange [2]: 0.9479
- CYP1A1 Fold change [2]: 5.261
- CYP1A1 log2FoldChange [2]: 2.395
- CYP1A2 Fold change [2]: 0.6714
- CYP1A2 log2FoldChange [2]: -0.5747
- CYP2B6 Fold change [2]: 1.3371
- CYP2B6 log2FoldChange [2]: 0.4191
- CYP2C9 Fold change [2]: 0.329
- CYP2C9 log2FoldChange [2]: -1.6038
- CYP2C19 Fold change [2]: 0.4073
- CYP2C19 log2FoldChange [2]: -1.2958
- CYP2D6 Fold change [2]: 0.5576
- CYP2D6 log2FoldChange [2]: -0.8427
- CYP3A4 log2FoldChange [2]: 1.049
- FASN Fold change [2]: 1.765
- FASN log2FoldChange [2]: 0.8201
- INSIG1 Fold change [2]: 1.785
- INSIG1 log2FoldChange [2]: 0.8359
- MLXIPL Fold change [2]: 0.9069
- MLXIPL log2FoldChange [2]: -0.1409
- NR1H2 Fold change [2]: 1.22
- NR1H2 log2FoldChange [2]: 0.2868
- NR1H4 Fold change [2]: 1.127
- NR1H4 log2FoldChange [2]: 0.1725
- NR1I2 Fold change [2]: 0.6165
- NR1I2 log2FoldChange [2]: -0.6979
- NR1I3 Fold change [2]: 0.09752
- NR1I3 log2FoldChange [2]: -3.358
- NR3C1 Fold change [2]: 1.06
- NR3C1 log2FoldChange [2]: 0.08356
- PPARA Fold change [2]: 0.907
- PPARA log2FoldChange [2]: -0.1409
- PPARG Fold change [2]: 2.875
- PPARG log2FoldChange [2]: 1.5234
- RARA Fold change [2]: 1.12
- RARA log2FoldChange [2]: 0.164
- RARB Fold change [2]: 3.072
- RARB log2FoldChange [2]: 1.619
- RARG Fold change [2]: 1.553
- RARG log2FoldChange [2]: 0.6348
- SCD Fold change [2]: 1.519
- SCD log2FoldChange [2]: 0.6028
- SREBF1 Fold change [2]: 0.7245
- SREBF1 log2FoldChange [2]: -0.4649
